Drawing on patent US20210290597A1, “METHOD OF TREATING A CONDITION ASSOCIATED WITH NEURODEGENERATION USING INHIBITORS OF OAT3” (Neuropore Therapies, Inc., priority 2018, published 2021), this text covers IC50 for one molecule.

Assay type in all cases: cell-based
The target of one experiment is T1, P-gp (MDR1) (Homo sapiens, UniProt P08183).
T1 construct: expressed in transfected cells
Put plainly: In vitro ion transport assay 1, P-gp. Conditions: probe substrate 100 nM [3H]-quinidine. As to the method:
(§1) Compound 1 was studied in the concentration range of 0.1-100 μM for its potency against transport mediated by various transporter proteins. [table]

The next experiment addresses T2, human transporter OAT3 (Homo sapiens, UniProt Q8TCC7).
T2 construct: expressed in transfected cells; host or cells: MDCK-II
T2 sequence (Q8TCC7 1-542): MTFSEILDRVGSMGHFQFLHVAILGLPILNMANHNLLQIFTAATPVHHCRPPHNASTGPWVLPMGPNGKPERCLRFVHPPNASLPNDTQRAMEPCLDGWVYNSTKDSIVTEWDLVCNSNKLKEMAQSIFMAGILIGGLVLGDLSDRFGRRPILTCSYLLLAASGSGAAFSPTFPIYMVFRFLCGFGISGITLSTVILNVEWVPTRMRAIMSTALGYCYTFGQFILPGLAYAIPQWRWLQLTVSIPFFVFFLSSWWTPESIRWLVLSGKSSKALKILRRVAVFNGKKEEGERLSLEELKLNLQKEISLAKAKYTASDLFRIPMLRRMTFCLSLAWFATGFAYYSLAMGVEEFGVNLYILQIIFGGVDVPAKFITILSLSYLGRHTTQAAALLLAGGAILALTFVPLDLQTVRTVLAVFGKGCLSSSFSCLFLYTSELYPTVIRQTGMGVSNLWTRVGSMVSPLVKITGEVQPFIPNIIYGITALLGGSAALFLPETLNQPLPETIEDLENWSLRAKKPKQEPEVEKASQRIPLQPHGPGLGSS
The experiment can be described thus: In vitro transport assay 2, OAT3. As to the method: Compound 1 was studied in the concentration range of 0.1-10 μM for its potency against transport mediated by various transporter proteins.

In experiment [1] the target is T3, human transporter OATP1B1 (Homo sapiens, UniProt Q9Y6L6).
T3 construct: expressed in transfected cells; host or cells: MDCK-II
T3 sequence (Q9Y6L6 1-691): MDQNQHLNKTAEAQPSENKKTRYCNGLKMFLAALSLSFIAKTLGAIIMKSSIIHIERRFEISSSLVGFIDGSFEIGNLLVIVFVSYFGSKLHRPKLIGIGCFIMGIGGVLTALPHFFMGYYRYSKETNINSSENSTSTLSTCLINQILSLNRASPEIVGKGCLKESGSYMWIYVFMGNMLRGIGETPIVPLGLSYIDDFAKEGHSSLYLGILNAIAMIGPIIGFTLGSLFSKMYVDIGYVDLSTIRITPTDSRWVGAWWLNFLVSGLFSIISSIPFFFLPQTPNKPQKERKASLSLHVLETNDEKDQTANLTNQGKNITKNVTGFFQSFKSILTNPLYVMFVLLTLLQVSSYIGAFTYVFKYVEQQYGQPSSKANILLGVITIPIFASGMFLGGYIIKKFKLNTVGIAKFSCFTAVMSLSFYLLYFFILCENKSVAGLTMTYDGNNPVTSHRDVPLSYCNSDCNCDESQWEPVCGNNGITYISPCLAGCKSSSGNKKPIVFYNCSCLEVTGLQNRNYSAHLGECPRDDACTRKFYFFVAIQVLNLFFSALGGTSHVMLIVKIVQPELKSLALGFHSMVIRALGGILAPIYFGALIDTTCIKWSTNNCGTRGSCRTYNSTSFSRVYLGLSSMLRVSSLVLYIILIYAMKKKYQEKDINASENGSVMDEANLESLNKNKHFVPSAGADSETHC
Put plainly: In vitro ion transport assay 1, OATP1B1. The note with it: probe substrate 2 μM [3H]-estradiol-17β-D-glucuronide. As to the method: as §1

In another experiment the target is T4, human transporter OAT1 (Homo sapiens, UniProt Q4U2R8).
T4 construct: expressed in transfected cells; host or cells: MDCK-II
T4 sequence (Q4U2R8 1-563): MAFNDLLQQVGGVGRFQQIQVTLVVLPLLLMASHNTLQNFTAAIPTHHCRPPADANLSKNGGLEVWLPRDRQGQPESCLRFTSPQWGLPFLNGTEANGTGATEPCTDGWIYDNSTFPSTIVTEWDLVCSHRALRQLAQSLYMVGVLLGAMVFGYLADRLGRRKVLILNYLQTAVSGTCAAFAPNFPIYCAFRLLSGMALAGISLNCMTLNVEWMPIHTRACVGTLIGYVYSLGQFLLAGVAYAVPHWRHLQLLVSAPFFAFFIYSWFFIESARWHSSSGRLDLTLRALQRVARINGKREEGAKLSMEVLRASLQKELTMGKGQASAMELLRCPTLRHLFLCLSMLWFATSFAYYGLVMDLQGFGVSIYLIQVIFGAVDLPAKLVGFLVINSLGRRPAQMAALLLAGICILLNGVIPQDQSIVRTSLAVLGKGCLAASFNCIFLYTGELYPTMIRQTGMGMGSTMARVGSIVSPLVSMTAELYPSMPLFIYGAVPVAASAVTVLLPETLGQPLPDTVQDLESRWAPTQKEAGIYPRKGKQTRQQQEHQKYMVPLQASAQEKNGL
Put plainly: In vitro ion transport assay 1, OAT1-mediated uptake in MDCK-II cells. The note with it: probe substrate 2 μM [3H]-p-aminohippurate. As to the method:
To determine the effect of the ion transporter inhibitors on the uptake activity of solute carrier (SLC) ion transporter proteins such as OAT1 and OAT3, an ion transport assay utilizing a polarized monolayer of MDCK-II cells grown on permeable supports was used. The MDCK-II cells were treated to express the transporter of interest (e.g., OAT3 or OAT 1) or were treated with a control vector. 96-well culture plates with both donor and receiver cells containing a monolayer of MDCK-II cells were maintained at 37° C. in 5% CO2 atmosphere. Radio-labeled para-aminohippurate ([3H]-PAH) was used as a substrate for measuring OAT1 and OAT3 mediated transport, where the transport of the substrate was determined by radiometric detection. OAT1-mediated transport was assayed using 2 μM of [3H]-PAH; OAT3-mediated transport was assayed using 10 μM of [3H]-PAH. The probe substrate for OAT1 was 2 μM [3H]-p-aminohippurate. The probe substrate for OAT3 was 10 μM [3H]p-aminohippurate. The reference inhibitor for both assays was 100 μM probenecid. Following pre incubation of the transfected MDCK-II cells in HBSS, [3H]-PAH was added at the concentrations described above. Wells were then treated with either reference inhibitor probeneic acid or with the test compound. Cells transfected with empty vector served as an additional control. […]

Read-outs that look alike come from different tables or passages of the source.

Usually IC50 stands for the concentration that inhibits the measured activity by half.

T1 sequence (P08183 whole entry, species assumed): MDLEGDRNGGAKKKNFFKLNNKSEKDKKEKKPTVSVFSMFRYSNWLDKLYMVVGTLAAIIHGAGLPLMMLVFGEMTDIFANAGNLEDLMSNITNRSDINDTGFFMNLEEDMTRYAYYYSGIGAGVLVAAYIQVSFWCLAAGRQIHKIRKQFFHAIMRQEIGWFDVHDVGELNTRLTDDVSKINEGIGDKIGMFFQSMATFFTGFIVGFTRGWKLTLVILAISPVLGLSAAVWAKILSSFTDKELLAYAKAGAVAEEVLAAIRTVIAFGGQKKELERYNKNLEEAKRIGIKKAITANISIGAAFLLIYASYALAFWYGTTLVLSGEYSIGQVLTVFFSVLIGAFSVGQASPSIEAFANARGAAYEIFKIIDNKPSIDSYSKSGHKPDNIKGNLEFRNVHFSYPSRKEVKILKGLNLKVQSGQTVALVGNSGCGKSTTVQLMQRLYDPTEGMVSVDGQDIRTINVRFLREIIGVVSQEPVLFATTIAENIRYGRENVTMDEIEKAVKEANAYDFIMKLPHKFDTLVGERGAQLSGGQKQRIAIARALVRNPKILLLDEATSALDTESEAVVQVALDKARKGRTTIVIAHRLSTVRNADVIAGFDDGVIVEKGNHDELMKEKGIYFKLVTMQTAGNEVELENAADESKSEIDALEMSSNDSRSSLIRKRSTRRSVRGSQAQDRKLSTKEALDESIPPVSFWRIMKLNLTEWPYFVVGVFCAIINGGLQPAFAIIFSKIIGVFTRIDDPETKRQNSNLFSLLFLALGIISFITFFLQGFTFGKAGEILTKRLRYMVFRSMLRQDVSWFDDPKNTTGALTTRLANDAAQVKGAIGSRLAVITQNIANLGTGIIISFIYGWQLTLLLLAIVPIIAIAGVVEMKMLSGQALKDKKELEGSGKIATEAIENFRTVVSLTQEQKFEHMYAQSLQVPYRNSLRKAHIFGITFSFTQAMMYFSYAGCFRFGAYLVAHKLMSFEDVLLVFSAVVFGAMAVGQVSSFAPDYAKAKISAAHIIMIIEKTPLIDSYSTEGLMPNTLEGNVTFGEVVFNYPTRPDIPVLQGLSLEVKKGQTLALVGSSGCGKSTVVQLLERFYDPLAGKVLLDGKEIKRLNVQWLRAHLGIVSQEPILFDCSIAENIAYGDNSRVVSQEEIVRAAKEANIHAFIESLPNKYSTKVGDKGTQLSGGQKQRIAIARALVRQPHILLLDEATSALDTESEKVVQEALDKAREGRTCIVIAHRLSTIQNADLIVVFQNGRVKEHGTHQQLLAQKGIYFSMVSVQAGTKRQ

In the case of `O=S(=O)(c1ccc(-n2cn[nH]c2=S)cc1)c1ccc(Cl)c(C(F)(F)F)c1` [Compound 1, 4-(4-((4-chloro-3-(trifluoromethyl)phenyl)sulfonyl)phenyl)-2,4-dihydro-3H-1,2,4-triazole-3-thione], the IC50 at P-gp (MDR1) was determined as 37.1 µM; at human transporter OAT3 (100 nM [3H]-estrone-3-sulfate, read-out: IC50, OAT3 (Substrate: E3S)) it was 0.891 µM; on human transporter OAT3 (10 μM [3H]-p-aminohippurate, read-out: IC50, OAT3 (Substrate: PAH)), 0.252 µM; in experiment [1], 14.6 µM; at human transporter OAT1, 12.9 µM.
